# Test results reported in US20240199618A1, “NOVEL N-ACYL-[3-SUBSTITUTED]-[8-SUBSTITUTED]-5,6-DIHYDRO-[1,2,4]TRIAZOLO[4,3-a]PYRAZINES AS SELECTIVE NK-3 RECEPTOR ANTAGONISTS, PHARMACEUTICAL COMPOSITION, METHODS FOR USE IN NK-3 RECEPTOR-MEDIATED DISORDERS” (Ogeda SA, priority 2013, published 2024).
# Like-named read-outs stand apart in the source and are kept apart here.
# Legend:
# human NK-1 receptor = human NK-1 receptor (Homo sapiens (Human), UniProt P25103); test: Selectivity assay: [3H] substance P binding, human NK-1 receptor; details: 2 nM [3H] substance P, CHO membranes; read-out: hNK-1 (Ki)
# How it was run: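 Competition binding on membranes from CHO cells expressing human NK-1 receptor, using 2 nM [3H] substance P in 50 mM Tris/5 mM MnCl2/150 mM NaCl/0.1% BSA, pH 7.4, with increasing compound concentrations. Incubated 60 min at 25 °C; bound radioactivity measured after filtration.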
# human NK-3 receptor [1] = target: T1, human NK-3 receptor (Homo sapiens (Human), UniProt P29371); test: Aequorin functional assay with human NK-3 receptor (antagonist testing vs NKA); assay type: cell-based; details: CHO cells, NKA at EC80 (3 nM); read-out: Functional assay: Aequorin assay with human NK-3 receptor hNK-3-AEQ (antagonist IC50)
# How it was run: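 CHO cells co-expressing human NK-3 receptor and apoaequorin were pre-incubated 3 min with compound, then challenged with NKA at EC80 (3 nM). Coelenterazine-dependent luminescence was integrated over 90 s, and antagonism was derived from concentration-dependent inhibition of the calcium response.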
# human NK-3 receptor [2] = target: T1, human NK-3 receptor; test: 3H-SB222200 binding competition assay with human NK-3 receptor
# How it was run: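 Membranes from CHO cells stably expressing the receptor were incubated with 5 nM 3H-SB222200 and varying compound concentrations in HEPES 25 mM/NaCl 0.1 M/CaCl2 1 mM/MgCl2 5 mM/BSA 0.5%/saponin 10 μg/ml, pH 7.4. Bound radioligand was quantified as membrane-associated radioactivity after filtration.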
# [3] = system: circulating levels of luteinizing hormone (LH); test: Castrated male rat model, circulating luteinizing hormone (LH); assay type: in vivo; details: single oral dose less than or equal to 30 mg/kg, p<0.05
# Experimental: Castrated Male Rat Model to Assess the Effect of Compound of Invention on Circulating Levels of Luteinizing Hormone (LH)
# The effect of compounds of the invention to inhibit luteinizing hormone (LH) secretion is determined by the following biological studies.
# In humans and rodents, castration is well-precedented to permit heightened, persistent GnRH signaling and consequent elevation of circulating LH. Thus, a castrated rat model is used to provide a broad index for measurement of LH inhibition as a marker of test compound inhibition of the GnRH signaling pathway.
# Castrated adult male Sprague-Dawley (SD) rats (150-175 g,) were purchased from Janvier (St Berthevin, France). All animals were housed 2 per cage in a temperature-controlled room (22±2° C.) and 50±5% relative humidity with a 12 hour/12 hour light/dark cycles (lights off at […]). The animals were allowed 3 weeks of postoperative recovery prior to study. Animals were handled on a daily basis. Standard diet and tap water were provided ad libitum. Animal cage litters were changed once a week. On the study day, animals were acclimated to the procedure room for a period of one hour prior to the initiation of the experiment.
# Compounds of the invention were formulated in 0.5% methyl cellulose.
# After basal sampling (TO) a single dose of compounds of the invention or vehicle was administrated orally to rats. Blood samples were then collected at several time points post dosing (45, 90, 150, 300 and 420 minutes). Blood samples were obtained via tail vein bleed, drawn into EDTA-containing tubes and centrifuged immediately. Plasma samples were collected and stored in a −80° C. freezer until assayed. Serum LH levels were determined using radioimmunoassay kit from RIAZEN—Rat L H, Zentech (Liege, Belgium). Baseline was defined as the initial basal blood sample.
# plasma protein = test: Determination of plasma protein binding (equilibrium dialysis, RED); assay type: in vitro ADME; details: 4 hours at 37° C.
# human NK-2 receptor = human NK-2 receptor (Homo sapiens (Human), UniProt P21452); test: Selectivity assay: [125I]-Neurokinin A binding, human NK-2 receptor; details: 0.1 nM [125I]-Neurokinin A, CHO membranes; read-out: hNK-2 (Ki)
# Experimental: The affinity of compounds of the invention for the NK-2 receptor was evaluated in CHO recombinant cells which express the human NK-2 receptor. Membrane suspensions were prepared from these cells. […] Binding assays were performed in a 25 mM HEPES/1 mM CaCl2)/5 mM MgCl2/0.5% BSA/10 μg/ml saponin, at pH 7.4. […] The radioactivity retained on the filters was measured by using the TopCount-NXT reader (Packard).
# [4] = Table 2, 5 nM 3H-SB222200, CHO membranes, read-out: Competitive binding assay with human NK-3 receptor hNK-3 (Ki)
# [5] = Table 3 (selectivity table), read-out: hNK-3 (Ki)
# Chain of human NK-2 receptor (P21452 whole entry): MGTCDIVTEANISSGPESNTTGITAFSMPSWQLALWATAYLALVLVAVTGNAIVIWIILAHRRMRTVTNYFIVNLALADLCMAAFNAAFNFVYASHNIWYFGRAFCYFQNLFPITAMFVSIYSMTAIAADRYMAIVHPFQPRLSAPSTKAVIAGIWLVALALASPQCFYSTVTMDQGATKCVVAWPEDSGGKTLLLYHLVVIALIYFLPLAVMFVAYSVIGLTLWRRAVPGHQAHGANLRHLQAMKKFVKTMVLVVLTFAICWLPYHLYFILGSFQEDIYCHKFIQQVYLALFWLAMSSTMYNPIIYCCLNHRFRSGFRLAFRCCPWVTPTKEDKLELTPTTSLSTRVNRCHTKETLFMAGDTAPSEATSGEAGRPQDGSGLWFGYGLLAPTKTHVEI
# T1 sequence (P29371 whole entry): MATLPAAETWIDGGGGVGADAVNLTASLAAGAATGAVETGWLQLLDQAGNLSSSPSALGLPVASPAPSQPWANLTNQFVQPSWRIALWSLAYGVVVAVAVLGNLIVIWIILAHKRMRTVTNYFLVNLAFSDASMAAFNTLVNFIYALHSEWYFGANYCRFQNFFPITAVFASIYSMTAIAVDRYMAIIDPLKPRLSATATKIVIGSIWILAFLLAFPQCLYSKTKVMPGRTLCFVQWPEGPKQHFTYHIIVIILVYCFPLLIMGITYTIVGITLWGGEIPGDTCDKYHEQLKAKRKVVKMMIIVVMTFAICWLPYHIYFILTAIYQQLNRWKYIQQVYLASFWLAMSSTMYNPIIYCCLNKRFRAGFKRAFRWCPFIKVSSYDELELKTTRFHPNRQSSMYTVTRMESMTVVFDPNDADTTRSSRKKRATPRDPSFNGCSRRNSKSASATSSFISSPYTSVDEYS
# Chain of human NK-1 receptor (P25103 whole entry): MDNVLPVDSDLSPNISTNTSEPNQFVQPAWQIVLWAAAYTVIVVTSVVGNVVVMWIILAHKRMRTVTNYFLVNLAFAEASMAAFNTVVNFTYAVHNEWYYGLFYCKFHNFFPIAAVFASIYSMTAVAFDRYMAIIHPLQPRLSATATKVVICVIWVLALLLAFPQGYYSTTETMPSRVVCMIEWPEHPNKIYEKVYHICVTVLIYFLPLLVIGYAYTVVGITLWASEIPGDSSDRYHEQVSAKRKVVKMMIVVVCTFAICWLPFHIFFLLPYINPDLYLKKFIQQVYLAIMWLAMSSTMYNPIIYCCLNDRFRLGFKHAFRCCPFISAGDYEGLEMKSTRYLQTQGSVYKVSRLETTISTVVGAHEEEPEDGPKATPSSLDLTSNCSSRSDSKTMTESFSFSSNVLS
Structure (SMILES),Ki (human NK-1 receptor),IC50 (human NK-3 receptor [1]),Ki (human NK-3 receptor [2]; [4]),Ki (human NK-3 receptor [2]; [5]),circulating LH levels [3],"Exposure (% rPPB), bound drug fraction to plasma protein (plasma protein)",Ki (human NK-2 receptor)
"Cc1nsc(-c2nnc3n2CCN(C(=O)c2ccc(F)c(F)c2)[C@@H]3C)n1 [Compound 9, (R)-(3,4-difluorophenyl)(8-methyl-3-(3-methyl-1,2,4-thiadiazol-5-yl)-5,6-dihydro-[1,2,4]triazolo[4,3-a]pyrazin-7(8H)-yl)methanone]",> 30000 nM,21 nM,30 nM,30 nM,significantly suppressed,22%,> 30000 nM
"Cc1nsc(-c2nnc3n2CCN(C(=O)c2ccc(Cl)c(Cl)c2)[C@@H]3C)n1 [Compound 1, (R)-(3,4-dichlorophenyl)(8-methyl-3-(3-methyl-1,2,4-thiadiazol-5-yl)-5,6-dihydro-[1,2,4]triazolo[4,3-a]pyrazin-7(8H)-yl)methanone]",10300 nM,16 nM,11 nM,11 nM,significantly suppressed,67%,7500 nM
"CCc1nsc(-c2nnc3n2CCN(C(=O)c2ccc(F)cc2)[C@@H]3C)n1 [Compound 2, (R)-(3-(3-ethyl-1,2,4-thiadiazol-5-yl)-8-methyl-5,6-dihydro-[1,2,4]triazolo[4,3-a]pyrazin-7(8H)-yl)(4-fluorophenyl)methanone]",23800 nM,12 nM,15 nM,15 nM,significantly suppressed,47%,> 30000 nM
"Cc1nsc(-c2nnc3n2CCN(C(=O)c2ccc(F)c(F)c2F)[C@@H]3C)n1 [Compound 8, (R)-(8-methyl-3-(3-methyl-1,2,4-thiadiazol-5-yl)-5,6-dihydro-[1,2,4]triazolo[4,3-a]pyrazin-7(8H)-yl)(2,3,4-trifluorophenyl)methanone]",> 30000 nM,33 nM,26 nM,26 nM,significantly suppressed,29%,> 30000 nM
